{"source": "patent US9198967B2", "about": "“Pharmaceutical compositions active in preventing, stabilizing and treating Alzheimer's disease” (priority 2009, dated 2015)", "system": "fusiform erythrocytes (FE)", "test": "FE percentage by Nomarski microscopy on 400 erythrocytes, 6-month clinical study", "format": "in vivo, human", "conditions": "6 months", "description": "The effect of the composition of the invention on FE is measured by the percentage difference in fusiform erythrocytes present in the patient's blood before and after treatment with the composition of the invention.\nDuring the assessments blood was collected, after fasting since the previous evening, into heparinized and non-heparinized tubes. Aliquots of 5 ml were collected (2 of plasma and 1 of serum) from the brachial vein. The collected blood was immediately centrifuged and kept at −80° C. until required for the measurements. A fourth aliquot of 2 ml, without heparin, was collected for FE analysis.\nFE measurements were carried out by isolating the erythrocyte pellet by centrifugation (100×g for 15 minutes at 4° C.) and diluting it in 2 ml of a citrate-phosphate-dextrose solution with adenine (CPDA) then centrifuged once more.\nAfter centrifugation the upper part of the solution was removed and the process repeated three times always resuspending with CPDA.\nImmediately after the last preparation, FE percentage was calculated using a microscope with Nomarski optics based on an analysis of 400 erythrocytes [Mohanty J G, Eckley D M, J D Williamson et al. Do red blood cell-β-amyloid interaction alter oxygen delivery in Alzheimer's disease? Adv Exp Med Biol 2008; 614:29-35.]"}
{"smiles": "COc1cc2c(cc1OC)C(=O)C(CC1CCN(Cc3ccccc3)CC1)C2", "note": "(stereo not shown) [Donepezil]", "values": [{"measurement": "effect on the number of FE (in words)", "result": "improvement in the FE"}]}
